Results reported in PubChem BioAssay AID488788 (Broad Institute, 2010).
Results filed as inconclusive are left out. Calls of active or inactive are those of the source. How the calls were made is not given here.

Molecular target: CAAX prenyl protease 2 (Saccharomyces cerevisiae (strain ATCC 204508 / S288c)) (UniProt Q03530)
Assay: yeast Rce1 CAAX endoprotease inhibition – biochemical, plate reader, cherry-pick, dose response (AID 488788)
Details: Rce1p enzyme activity

CAAX prenyl protease 2 (Saccharomyces cerevisiae (strain ATCC 204508 / S288c)), sequence (Q03530 whole entry, looked up): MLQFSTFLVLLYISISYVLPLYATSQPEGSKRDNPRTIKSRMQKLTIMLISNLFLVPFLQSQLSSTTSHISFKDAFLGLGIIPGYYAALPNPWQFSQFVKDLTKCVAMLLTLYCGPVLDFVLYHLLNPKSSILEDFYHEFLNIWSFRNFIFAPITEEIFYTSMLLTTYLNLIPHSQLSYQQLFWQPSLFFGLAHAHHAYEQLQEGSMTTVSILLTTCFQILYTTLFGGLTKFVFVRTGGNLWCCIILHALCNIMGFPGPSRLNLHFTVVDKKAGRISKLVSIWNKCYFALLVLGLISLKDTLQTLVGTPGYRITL

| Structure (SMILES) | AC50 |
| --- | --- |
| COC(C/C=C\C(=O)[C@H](C)OCc1ccccc1)OC | > 10 µM (inactive) |

Same assay, conditions: Rce1p enzyme activity, at 10 µM (top of the series)

| Structure (SMILES) | activity change, negative = inhibition |
| --- | --- |
| C=CCNc1oc(/C=C/c2ccccc2)nc1C#N | inactive |
| Cc1ccc(S(=O)(=O)Oc2ccc(C3C4=C(CCCC4=O)N(CCC(=O)O)C4=C3C(=O)CCC4)cc2Cl)cc1 | inactive |
| COc1ccc(S(=O)(=O)N(CC(=O)N2CCCC2)Cc2ccccc2)cc1 | inactive |
| CC(C)c1ccc(NC(=O)COc2nncc3ccccc23)cc1 | inactive |
| Cc1nc(SC(C(=O)c2ccccc2)c2ccccc2)nc2ccccc12 (stereo unspecified) | inactive |
| COc1ccc(S(=O)(=O)NCC2CCCO2)cc1NC(=O)c1ccccc1F (stereo unspecified) | inactive |
| CC(C)c1cccc(OCC(=O)Nc2ccc(S(=O)(=O)Nc3ccccn3)cc2)c1 | inactive |
| CC(C)C(NC(=O)c1ccco1)C(=O)NCC(c1ccco1)N1CCCCC1 (stereo unspecified) | inactive |
| Cc1cc(C(=O)N/N=C/c2c3ccccc3cc3ccccc23)n[nH]1 | inactive |
| C/C(=N\NC(=O)c1ccc(Br)cc1)c1cccc(NC(=O)c2cccnc2)c1 | inactive |
| O=C(N/N=C/C1CC=CCC1)c1ccc(O)cc1O (stereo unspecified) | inactive |
| Cc1cc2cc(C(=O)N3CCc4c([nH]c5ccccc45)C3c3ccccn3)ccc2o1 (stereo unspecified) | inactive |
| Cc1cccc(NC(=O)c2cc(S(=O)(=O)N3CCCCC3)c[nH]2)c1C | inactive |
| COCCN1C(=O)/C(=C/c2ccc(Oc3ccc([N+](=O)[O-])cn3)c(OC)c2)SC1=Nc1ccccc1 | inactive |
| CCOc1ccc(OCC)c(NC(=O)c2nnn(CC(=O)Nc3cc(C)cc(C)c3)c2N)c1 | inactive |
| c1ccc(CCCN2CCN(CCOC(c3ccccc3)c3ccccc3)CC2)cc1 | inactive |
| COC(C[C@@H](O)C[C@H](O)[C@H](C)OCc1ccccc1)OC | inactive |
| COCCCNC(=S)NCCNc1nc2cc(C)cc(C)c2cc1C#N | inactive |
| Cc1cc(N/N=C/c2ccc(O)c(C)c2O)nc(-c2ccccc2O)n1 | inactive |
| C=CCc1cccc(/C=N/NC(=O)COc2ccc(-n3cnnn3)cc2)c1O | inactive |
| COc1ccc(C)c2sc(NC(=O)C3=COCCO3)nc12 | inactive |
| COc1ccccc1N1CCN(C(=O)c2coc(=O)c(Br)c2)CC1 | inactive |
| COC(C/C=C/C(=O)[C@H](C)OCc1ccccc1)OC | inactive |
| COc1ccc(C(=O)/C=C/c2ccc(OC)cc2OC)c(O)c1 | inactive |
| O=C(Nc1ccccc1)n1ccc(-c2ccc(-n3ccnc3)cc2)n1 | inactive |
| CCn1cc(C(=O)N[C@H](C)c2ccccc2)c(=O)c2cc(F)c(N3CCN(C)CC3)cc21 | inactive |
| COc1nc(-c2ccccc2)ccc1-c1noc(-c2ccccc2F)n1 | inactive |

| Structure (SMILES) | activity change, negative = inhibition |
| --- | --- |
| CC(C)[C@H](NC(=O)OCc1ccccc1)C(=O)OCC(=O)Nc1c(F)cccc1F | inactive |
| CCCCOc1ccc(C(=O)Nn2c(-c3cccs3)nc3ccccc3c2=O)cc1 | inactive |
| O=C(O)CCCC[C@@H]1SC[C@@H]2NC(=O)N[C@@H]21 | inactive |
| O=C(CCCn1c(=O)[nH]c2ccc(Br)cc2c1=O)NCc1ccc(Cl)cc1 | inactive |
| COc1ccc(C)cc1NC(=O)CN1C(=O)COc2ccc(S(=O)(=O)N3CCOCC3)cc21 | inactive |
| Cc1c(CCC(=O)O)c(=O)oc2cc(OCc3cccc(F)c3)ccc12 | inactive |
| CCC(COC)NC(=O)CCc1nnc(Cc2cccc(C(F)(F)F)c2)o1 (stereo unspecified) | inactive |
| CCOc1cc(CNC2CCCC2)ccc1OCc1ccccc1Cl | inactive |
| CCc1ccc(NC(=O)c2cnc(N3CCN(c4ccccn4)CC3)c3ccccc23)cc1 | inactive |
| O=C(Nc1cccc2ncccc12)c1cccnc1 | inactive |
| O=C(Nc1cc(S(=O)(=O)N2CCOCC2)ccc1N1CCCC1)c1cnccn1 | inactive |
| NC(=O)[C@@H]1CC2(CC(c3cccc(NC(=O)CC(c4ccccc4)c4ccccc4)c3)=NO2)CN1C(=O)c1ccc(Cl)cc1 (stereo partly specified) | inactive |
| CCOc1ccc(C2C(C#N)=C(N)Oc3c2c(=O)oc2ccccc32)cc1 (stereo unspecified) | inactive |
| Cc1cc(C)n(-c2nc3ccccc3c(=O)n2OCC(=O)N(C)C)n1 | inactive |
| Cc1cc(C)n(CC(=O)NC2CCCCC2C)c(=O)c1C#N (stereo unspecified) | inactive |
| Cc1cc(C)cc(N2CC(O)=C(c3nc4ccccc4c(=O)[nH]3)C2=N)c1 | inactive |
| O=C(COc1ccccc1)Nc1cccc(-c2nc3cc4ccccc4cc3[nH]2)c1 | inactive |
| O=C(C1CCC(=O)N(C2CC2)C1)N1CCN(c2ccccc2Cl)CC1 (stereo unspecified) | inactive |
| Cc1ccc(NS(=O)(=O)c2ccc(NC(=O)N3CCCCC3)cc2)cc1 | inactive |
| CCN(C(=O)COC(=O)c1cc(-c2cccs2)nc2ccccc12)C1CCS(=O)(=O)C1 (stereo unspecified) | inactive |
| COc1ccc(-n2c(N)c(C(=O)NCc3ccco3)c3nc4ccccc4nc32)c(OC)c1 | inactive |
| COc1ccc(OC)c(/C=N/c2c(-c3ccc(O)c(OC)c3)nc3ccccn23)c1 | inactive |
| N#CC(/C(=N/S(=O)(=O)c1cccs1)c1ccccc1)c1nc2ccccc2[nH]1 (stereo unspecified) | inactive |
| CC(=O)c1c(C)oc2ccc(NS(=O)(=O)c3ccc(C(=O)O)cc3)cc12 | inactive |
| CC1=C(C(=O)OCc2ccccc2)C(c2ccc(-c3ccccc3)cc2)NC(=O)N1CCCC(=O)O (stereo unspecified) | inactive |
| O=C(C1=C[C@@H](C2CC2)C[C@@H](OCc2ccc(CO)cc2)O1)N1CCN(Cc2ccccc2)CC1 | inactive |
| NS(=O)(=O)c1ccc(NC(=O)/C=C/c2cn(-c3ccccc3)nc2-c2cccc(Cl)c2)cc1 | inactive |

| Structure (SMILES) | activity change, negative = inhibition |
| --- | --- |
| COc1ccc(-c2cc(C(F)(F)F)nc(SCC(=O)NCc3cnn(C)c3C)n2)cc1OC | inactive |
| CCOC(=O)c1c(-c2ccccc2)oc2ccc(OCC(O)CNCCN(C)C)cc12 (stereo unspecified) | inactive |
| Cc1ccc(C2(COC(=O)C(C)C)CO2)c(OC(=O)C(C)C)c1 (stereo unspecified) | inactive |
| CC(=O)NN1C(=O)c2ccccc2NC1c1ccccc1 (stereo unspecified) | inactive |
| FC(F)(F)c1cc(Oc2ccccc2)ncc1-c1nnc(-c2ccccc2Cl)o1 | inactive |
| CC(=O)Nc1ccc(Cl)cc1C1COC(=O)C1=N (stereo unspecified) | inactive |
| NC(N)=NC(=O)c1nc(Cl)c(N)nc1N | inactive |
| CC(=O)c1c(O)cc(O)c(C(C)=O)c1O | inactive |
| CC1=NN(c2ccccc2)C(=O)/C1=C\c1ccc(Br)s1 | inactive |
| CCN1CCN(CC(O)COc2ccc3c(C)cc(=O)oc3c2)CC1 (stereo unspecified) | inactive |
| Cc1cc(NS(=O)(=O)c2ccccc2)c([N+](=O)[O-])cc1C | inactive |
| O=C(CN1CCC(NC(=O)c2ccc(Br)cc2)CC1)NCc1cccs1 | inactive |
| COC(=O)C(Cc1ccccc1)OS(N)(=O)=O (stereo unspecified) | inactive |
| CN(C)CCNc1ncnc2oc(-c3ccccc3)c(-c3ccccc3)c12 | inactive |
| Cc1nccc2c1[nH]c1ccccc12 | inactive |
| COc1ccccc1-c1cc(C(=O)O)c2c(=O)n(C)c(=O)n(Cc3ccccc3)c2n1 | inactive |
| Cc1c(Cl)c([N+](=O)[O-])nn1CC(=O)N1CCCc2ccccc21 | inactive |
| Nc1ccccc1Oc1ccc2ccccc2c1 | inactive |
| C=C(C)C1(O)OC(=O)C=C1OC (stereo unspecified) | inactive |
| CN(C)CC(C)(C)CNC(=S)NCc1ccc2c(c1)OCO2 | inactive |
| COc1cc(NC(=O)C/C(C)=N/NC(=O)c2cccc(O)c2)c(OC)cc1Cl | inactive |
| COc1cccc(-c2csc(N3CCN(C(=O)NC45CC6CC(CC(C6)C4)C5)CC3)n2)c1 | inactive |
| COC(C/C=C/[C@@H](O)[C@H](C)OCc1ccccc1)OC | inactive |
| CC(Cc1cccs1)NC(=O)Nc1ccc([N+](=O)[O-])cc1 (stereo unspecified) | inactive |
| CCN(Cc1ccccc1)c1ccc(/C=N/N=C(N)N)cc1 | inactive |
| CC(C)CNC(=O)COc1cccc(C(=O)NCc2ccccc2)c1 | inactive |
